Experimental data reported in patent US20100267561A1, “HERBICIDAL PYRIDAZINONE DERIVATIVES” (priority 2007, published 2010).

Legend:
Experiment in all cases: Test B pre-/postemergence plant response
Assay type in all cases: in vivo
[1] = tested on: blackgrass (Alopecurus myosuroides); conditions: for Blackgrass plant response rating: 8 g ai/ha
Procedure, shortened: (§1)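 Preemergence and postemergence (plants 2-18 cm, 1- to 4-leaf stage) applications used test chemicals in a non-phytotoxic solvent with surfactant. Plants were held in a greenhouse 13 to 15 days, then rated visually against controls on a 0-100 scale (0 no effect, 100 complete control).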

[2] = tested on: catchweed bedstraw (Galium aparine); conditions: Preemergence
Procedure, shortened: as §1

[3] = tested on: common (oilseed) sunflower (Helianthus annuus); conditions: Preemergence
Procedure, shortened: as §1

corn (Zea mays) = conditions: for Corn plant response rating: 8 g ai/ha
Procedure, shortened: as §1

[4] = tested on: downy bromegrass (Bromus tectorum); conditions: for Bromegrass, Downy plant response rating: 8 g ai/ha
Procedure, shortened: as §1

[5] = tested on: eastern black (E.B.) nightshade (Solanum ptycanthum); conditions: Preemergence
Procedure, shortened: as §1

[6] = tested on: giant foxtail (Setaria faberii); conditions: for Foxtail, Giant plant response rating: 8 g ai/ha
Procedure, shortened: as §1

[7] = tested on: green foxtail (Setaria viridis); conditions: for Foxtail, Green plant response rating: 8 g ai/ha
Procedure, shortened: as §1

[8] = tested on: johnsongrass (Sorghum halepense); conditions: for Johnsongrass plant response rating: 8 g ai/ha
Procedure, shortened: as §1

kochia (Kochia scoparia) = conditions: for Kochia plant response rating: 8 g ai/ha
Procedure, shortened: as §1

[9] = tested on: morningglory (Ipomoea coccinea); conditions: for Morningglory plant response rating: 8 g ai/ha
Procedure, shortened: as §1

[10] = tested on: pigweed (Amaranthus retroflexus); conditions: for Pigweed plant response rating: 8 g ai/ha
Procedure, shortened: as §1

[11] = tested on: surinam grass (Brachiaria decumbens); conditions: for Surinam Grass plant response rating: 8 g ai/ha
Procedure, shortened: as §1

[12] = tested on: woolly cupgrass (Eriochloa villosa); conditions: for Cupgrass, Woolly plant response rating: 8 g ai/ha
Procedure, shortened: as §1

[13] = Postemergence, 16 g ai/ha, scale 0 to 100
[14] = Postemergence, 31 g ai/ha, scale 0 to 100, 0 no effect, 100 complete control
[15] = Postemergence, 62 g ai/ha, scale 0 to 100, 0 no effect, 100 complete control
[16] = Preemergence, 16 g ai/ha, scale 0 to 100 (0 no effect, 100 complete control)
[17] = Preemergence, 31 g ai/ha, 0 to 100 scale, 0 no effect, 100 complete control
[18] = Preemergence, 62 g ai/ha, scale 0 to 100
[19] = 16 g ai/ha, scale 0 to 100 (0 no effect, 100 complete control)
[20] = 31 g ai/ha, scale 0 to 100 (0 no effect, 100 complete control)
[21] = Preemergence, 31 g ai/ha, scale 0 to 100 (0 no effect, 100 complete control)

CCCc1cc(-c2ccc(Cl)cc2)nn1-c1c(O)cnn(C)c1=O [Compound 43]
65: Plant response rating, Bromegrass, Downy [4, 15] | Plant response rating, Johnsongrass [8, 16] | Surinam Grass plant response rating ([11]; postemergence, 0-100 scale)
98: Plant response rating, Foxtail, Giant [6, 13] | Plant response rating, Foxtail, Giant [6, 14] | Plant response rating, Johnsongrass [8, 18] | Plant response rating, Cupgrass, Woolly [12, 17]
95: Plant response rating, Blackgrass [1, 14] | Plant response rating, Blackgrass [1, 16] | Foxtail, Giant plant response rating ([6]; Preemergence, scale 0 to 100) | Plant response rating, Surinam Grass [11, 13] | Plant response rating, Cupgrass, Woolly [12, 14] | Plant response rating, Cupgrass, Woolly [12, 15]
45: Plant response rating, Bromegrass, Downy [4, 13]
0: Plant response rating, Galium [2, 19] | Plant response rating, Galium ([2]; 31 g ai/ha, 0 to 100 scale, 0 no effect, 100 complete control) | Plant response rating, Galium ([2]; 62 g ai/ha, scale 0 to 100) | Galium plant response rating ([2]; 8 g ai/ha, scale 0 to 100) | Plant response rating, Sunflower [3, 19] | Plant response rating, Sunflower [3, 20] | Plant response rating, Sunflower ([3]; 62 g ai/ha, scale 0 to 100) | Sunflower plant response rating ([3]; 8 g ai/ha, scale 0 to 100) | Corn plant response rating (corn (Zea mays); Preemergence, scale 0 to 100) | Plant response rating, Bromegrass, Downy [4, 16] | Bromegrass, Downy plant response rating ([4]; Preemergence, scale 0 to 100) | Plant response rating, Nightshade, E. B. [5, 19] | Plant response rating, Nightshade, E. B. [5, 20] | Plant response rating, Nightshade, E. B. ([5]; 62 g ai/ha, scale 0 to 100) | Nightshade, E. B. plant response rating ([5]; 8 g ai/ha, scale 0 to 100) | Johnsongrass plant response rating ([8]; postemergence, 0-100 scale) | Plant response rating, Johnsongrass [8, 13] | Kochia plant response rating (kochia (Kochia scoparia); postemergence, 0-100 scale) | Plant response rating, Kochia (kochia (Kochia scoparia); [13]) | Plant response rating, Kochia (kochia (Kochia scoparia); [14]) | Plant response rating, Kochia (kochia (Kochia scoparia); [15]) | Plant response rating, Kochia (kochia (Kochia scoparia); [16]) | Plant response rating, Kochia (kochia (Kochia scoparia); [17]) | Plant response rating, Kochia (kochia (Kochia scoparia); [18]) | Kochia plant response rating (kochia (Kochia scoparia); Preemergence, scale 0 to 100) | Morningglory plant response rating ([9]; postemergence, 0-100 scale) | Plant response rating, Morningglory [9, 13] | Plant response rating, Morningglory [9, 14] | Plant response rating, Morningglory [9, 15] | Plant response rating, Morningglory [9, 16] | Plant response rating, Morningglory [9, 21] | Plant response rating, Morningglory [9, 18] | Morningglory plant response rating ([9]; Preemergence, scale 0 to 100) | Pigweed plant response rating ([10]; postemergence, 0-100 scale) | Plant response rating, Pigweed [10, 13] | Plant response rating, Pigweed [10, 14] | Plant response rating, Pigweed [10, 15] | Plant response rating, Pigweed [10, 16] | Plant response rating, Pigweed [10, 21] | Plant response rating, Pigweed [10, 18] | Pigweed plant response rating ([10]; Preemergence, scale 0 to 100) | Surinam Grass plant response rating ([11]; Preemergence, scale 0 to 100) | Cupgrass, Woolly plant response rating ([12]; Preemergence, scale 0 to 100)
70: Blackgrass plant response rating ([1]; Preemergence, scale 0 to 100) | Plant response rating, Corn (corn (Zea mays); [16]) | Plant response rating, Bromegrass, Downy [4, 17]
80: Corn plant response rating (corn (Zea mays); postemergence, 0-100 scale) | Plant response rating, Bromegrass, Downy [4, 18] | Plant response rating, Johnsongrass [8, 14] | Plant response rating, Johnsongrass [8, 17] | Cupgrass, Woolly plant response rating ([12]; postemergence, 0-100 scale)
20: Johnsongrass plant response rating ([8]; Preemergence, scale 0 to 100)
85: Blackgrass plant response rating ([1]; postemergence, 0-100 scale) | Plant response rating, Blackgrass [1, 13] | Plant response rating, Corn (corn (Zea mays); [13]) | Plant response rating, Corn (corn (Zea mays); [14]) | Plant response rating, Corn (corn (Zea mays); [17]) | Foxtail, Giant plant response rating ([6]; postemergence, 0-100 scale)
100: Plant response rating, Blackgrass [1, 15] | Plant response rating, Blackgrass [1, 17] | Plant response rating, Blackgrass [1, 18] | Plant response rating, Corn (corn (Zea mays); [15]) | Plant response rating, Corn (corn (Zea mays); [18]) | Plant response rating, Foxtail, Giant [6, 15] | Plant response rating, Foxtail, Giant [6, 16] | Plant response rating, Foxtail, Giant [6, 17] | Plant response rating, Foxtail, Giant [6, 18] | Plant response rating, Foxtail, Green [7, 14] | Plant response rating, Foxtail, Green [7, 15] | Plant response rating, Foxtail, Green [7, 16] | Plant response rating, Foxtail, Green [7, 17] | Plant response rating, Foxtail, Green [7, 18] | Foxtail, Green plant response rating ([7]; Preemergence, scale 0 to 100) | Plant response rating, Johnsongrass [8, 15] | Plant response rating, Surinam Grass [11, 15] | Plant response rating, Surinam Grass [11, 21] | Plant response rating, Surinam Grass ([11]; Preemergence, 62 g ai/ha, 0 to 100 scale, 0 no effect, 100 complete control) | Plant response rating, Cupgrass, Woolly [12, 18]
60: Plant response rating, Bromegrass, Downy [4, 14] | Foxtail, Green plant response rating ([7]; postemergence, 0-100 scale) | Plant response rating, Cupgrass, Woolly [12, 16]
90: Plant response rating, Surinam Grass [11, 16] | Plant response rating, Cupgrass, Woolly [12, 13]
75: Plant response rating, Foxtail, Green [7, 13]
40: Bromegrass, Downy plant response rating ([4]; postemergence, 0-100 scale)
